# Values of other authors in patent US11395812B2, “Docetaxel albumin nanoparticle pharmaceutical composition, preparation method therefor and use thereof” (SICHUAN KELUN PHARMACEUTICAL RESEARCH INSTITUTE CO. LTD., priority 2015, dated 2022).
# Target: T1, recombinant human cytochrome P4501B1 (hCYP1B1) (Homo sapiens, UniProt Q16678)
# T1 sequence (Q16678 1-543): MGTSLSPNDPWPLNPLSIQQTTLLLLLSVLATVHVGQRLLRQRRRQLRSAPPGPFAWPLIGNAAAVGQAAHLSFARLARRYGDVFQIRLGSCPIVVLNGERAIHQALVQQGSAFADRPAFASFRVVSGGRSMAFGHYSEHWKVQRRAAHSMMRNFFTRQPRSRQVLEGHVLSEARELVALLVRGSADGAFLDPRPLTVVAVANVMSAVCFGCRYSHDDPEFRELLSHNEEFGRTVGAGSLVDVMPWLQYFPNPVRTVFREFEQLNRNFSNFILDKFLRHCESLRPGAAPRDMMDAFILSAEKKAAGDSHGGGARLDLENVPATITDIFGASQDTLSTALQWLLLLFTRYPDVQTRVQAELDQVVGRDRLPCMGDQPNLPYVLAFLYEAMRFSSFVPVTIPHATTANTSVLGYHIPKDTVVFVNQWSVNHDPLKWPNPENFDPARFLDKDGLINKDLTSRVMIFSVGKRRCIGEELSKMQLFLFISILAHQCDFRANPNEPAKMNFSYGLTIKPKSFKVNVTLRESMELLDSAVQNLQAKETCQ
# Settings: in vitro test
smiles,measurement,value
CC(=O)O[C@@]12CO[C@@H]1C[C@@H](O)[C@@]1(C)C(=O)[C@H](O)C3=C(C)[C@@H](OC(=O)[C@H](O)[C@@H](NC(=O)OC(C)(C)C)c4ccccc4)C[C@@](O)([C@@H](OC(=O)c4ccccc4)[C@H]21)C3(C)C [7-epi-docetaxel],increase of the activity of hCYP1B1,more than 7 times
